One data set deals with Hepatocyte. Nature of the data set: Hepatoprotective activity against tert-butyl hydroperoxide-induced oxidative stress in Wistar rat hepatocytes assessed as cell viability at 60 ug/ml by tryphan blue exclusion method (reference value: 74%). As to conditions: for viability at 60 µg/mL: read-out: Activity; call rule not given here. The class given is functional.
Data set [1] can be described thus: Antioxidant activity assessed as reactive oxygen species scavenging activity. The class given is physicochemical.

Our source for the viability and Activity values is ChEMBL document CHEMBL3745595, “Flavoalkaloids and Flavonoids from Astragalus monspessulanus” (J Nat Prod, 2015).

As for `C[C@@H]1O[C@@H](OC[C@H]2O[C@@H](Oc3c(-c4ccc(O)cc4)oc4cc(O[C@@H]5O[C@H](CO)[C@@H](O)[C@H](O)[C@H]5O)cc(O)c4c3=O)[C@H](O[C@@H]3O[C@@H](C)[C@H](O)[C@@H](O)[C@H]3O)[C@@H](O)[C@H]2O)[C@H](O)[C@H](O)[C@H]1O`, the viability at 60 µg/mL in the data set with Hepatocyte came out at 164%. Also, in data set [1], the result was Active.

`C[C@@H]1O[C@@H](OC[C@H]2O[C@@H](Oc3c(-c4ccc(O)c(O)c4)oc4cc(O)cc(O)c4c3=O)[C@H](O)[C@@H](O)[C@H]2O)[C@H](O)[C@H](O)[C@H]1O`: in the data set on Hepatocyte, the viability at 60 µg/mL stood at 159%. Also, the outcome in data set [1] was Active.

`C[C@@H]1O[C@@H](OC[C@H]2O[C@@H](Oc3c(-c4ccc(O)c(O)c4)oc4c(CN5CCCC(O)C5=O)c(O)cc(O)c4c3=O)[C@H](O[C@@H]3O[C@@H](C)[C@H](O)[C@@H](O)[C@H]3O)[C@@H](O)[C@H]2O)[C@H](O)[C@H](O)[C@H]1O` (stereo partly specified): the viability at 60 µg/mL in the data set with Hepatocyte was 159%. The outcome in data set [1] was Active.

Regarding `O=c1cc(-c2ccc(O)cc2)oc2cc(O[C@@H]3O[C@H](CO)[C@@H](O)[C@H](O)[C@H]3O)cc(O)c12` [APIGETRIN], the viability at 60 µg/mL in the data set on Hepatocyte was determined as 177%. Besides, the result in data set [1] was Active.

`C[C@@H]1O[C@@H](OC[C@H]2O[C@@H](Oc3c(-c4ccc(O)c(O)c4)oc4cc(O)cc(O)c4c3=O)[C@H](O)[C@@H](O)[C@@H]2O)[C@H](O)[C@H](O)[C@H]1O` [RUTIN]: the viability at 60 µg/mL with Hepatocyte came out at 168%. Besides, the result in data set [1] was Active.

`C[C@@H]1O[C@@H](O[C@H]2[C@H](Oc3c(-c4ccc(O)cc4)oc4cc(O)cc(O)c4c3=O)O[C@H](COC(=O)CC(C)(O)CC(=O)O)[C@H](O)[C@@H]2O)[C@H](O)[C@H](O)[C@H]1O` (stereo partly specified): the viability at 60 µg/mL in the data set on Hepatocyte stood at 155%. Besides, the outcome in data set [1] was Active.

With `C[C@@H]1O[C@@H](OC[C@H]2O[C@@H](Oc3c(-c4ccc(O)c(O)c4)oc4cc(O)cc(O)c4c3=O)[C@H](O[C@@H]3O[C@@H](C)[C@H](O)[C@@H](O)[C@H]3O)[C@@H](O)[C@H]2O)[C@H](O)[C@H](O)[C@H]1O`, the viability at 60 µg/mL in the data set with Hepatocyte was 195%. Also, the outcome in data set [1] was Active.

Regarding SILYMARIN [listing 1 of 2 here], the result in data set [1] was Active.

As to SILYMARIN [listing 2 of 2 here], the Activity in the data set on Hepatocyte was found to be 182%.

As to `C[C@@H]1O[C@@H](OC[C@H]2O[C@@H](Oc3c(-c4ccc(O)cc4)oc4c(CN5CCCC(O)C5=O)c(O)cc(O)c4c3=O)[C@H](O[C@@H]3O[C@@H](C)[C@H](O)[C@@H](O)[C@H]3O)[C@@H](O)[C@H]2O)[C@H](O)[C@H](O)[C@H]1O` (stereo partly specified), the viability at 60 µg/mL in the data set with Hepatocyte was 177%. Moreover, the result in data set [1] was Active.

On to `C[C@@H]1O[C@@H](OC[C@H]2O[C@@H](Oc3c(-c4ccc(O)cc4)oc4cc(O)cc(O)c4c3=O)[C@H](O[C@@H]3O[C@@H](C)[C@H](O)[C@@H](O)[C@H]3O)[C@@H](O)[C@H]2O)[C@H](O)[C@H](O)[C@H]1O`, for which, in the data set on Hepatocyte, the viability at 60 µg/mL was found to be 168%. Further, the outcome in data set [1] was Active.

Take `C[C@@H]1O[C@@H](OC[C@H]2O[C@@H](Oc3c(-c4ccc(O)c(O)c4)oc4cc(O[C@@H]5O[C@H](CO)[C@@H](O)[C@H](O)[C@H]5O)cc(O)c4c3=O)[C@H](O[C@@H]3O[C@@H](C)[C@H](O)[C@@H](O)[C@H]3O)[C@@H](O)[C@H]2O)[C@H](O)[C@H](O)[C@H]1O`: the viability at 60 µg/mL with Hepatocyte was determined as 186%. Also, in data set [1], the outcome was Active.

For the molecule `C[C@@H]1O[C@@H](O[C@H]2[C@H](Oc3c(-c4ccc(O)c(O)c4)oc4cc(O)cc(O)c4c3=O)O[C@H](COC(=O)CC(C)(O)CC(=O)O)[C@H](O)[C@@H]2O)[C@H](O)[C@H](O)[C@H]1O` (stereo partly specified), the viability at 60 µg/mL in the data set with Hepatocyte came to 182%. In data set [1], the outcome was Active.

For the molecule `O=c1c(O[C@@H]2O[C@H](CO)[C@H](O)[C@H](O)[C@H]2O)c(-c2ccc(O)cc2)oc2cc(O)cc(O)c12` [TRIFOLIN], in the data set with Hepatocyte, the viability at 60 µg/mL is 191%. Besides, the result in data set [1] was Active.
